Reference: patent publication US20260165976A1, “ANTI-EVAPORATIVE LIPID FORMULATIONS” (UNIVERSITY OF HELSINKI, priority 2022, published 2026)
“Also recorded” adds a separate entry of the source.

How the values were obtained:
Format in all cases: physicochemical
[1] = Evaporation resistance / evaporation reduction of lipid films (modified Langmuir and Schaefer method); conditions: for evaporation resistance of OAHFA films: individual lipid film on PBS subphase, 35±1° C., FIG. 2; for evaporation resistance of phospholipid films: FIG. 13C
Protocol: (§1) The lipid components and tailored mixtures dissolved in chloroform, or alternatively, the formulations undergoing characterization studies were spread onto the air-buffer interface of a Langmuir trough, either a Mini trough (KSV, Helsinki, Finland) or a Large trough (KSV NIMA, Biolin Scientific, Espoo, Finland), which was filled with PBS buffer. The samples were allowed to equilibrate for 3 min before starting the measurements. The surface pressure was measured using a Wilhelmy plate, the surface potential was measured using a KSV NIMA Surface Potential Sensor (Espoo, Finland) when relevant and Brewster angle microscopy (BAM) images were captured using a KSV NIMA microBAM (Espoo, Finland) instrument. The films were compressed at a constant rate of 5 or 10 mm/min and the subphase temperature was maintained at 35±1° C. The measurements were performed in an acrylic box under an ozone-free atmosphere to prevent undesired oxidation of the lipids. An ozone-free atmosphere was generated by passing dry air through ODS-3P ozone destruct unit (Ozone solutions, Hull, Iowa) and into the enclosure at a rate of 76 l/min.
The adaptive features of the formulations were uncovered through studying the spreading capabilities of the lipid films over compression-expansion cycles using the Langmuir setup. In more detail, the volume employed of each formulation was the volume required to observe a response in the surface pressure isotherm over one compression-expansion cycle. Altogether, the films were subjected to twenty compression-expansion cycles employing a 50 mm/min. compression/expansion rate and the changes in the surface pressure isotherms were monitored as described above. Evaporation resistance was determined by a modified Langmuir and Schaefer method (Langmuir et al, 1943, J Franklin Inst, 235, 119-162). The measurements were conducted by compressing the film to a specific mean molecular area, ranging between 2-40 Å^2/molecule (for individual compounds), or a specified area (for formulations) and placing a tailored desiccant cartridge, with a water-permeable membrane, approximately 2 mm above the aqueous surface. The commercial silica gel containing desiccant cartridges (SP Industries, Warminster, PA) were modified by replacing the membrane with a Millipore Immobilon-P PVDF membrane (450 nm pore size, Bedford, MA). The desiccant cartridge was fixed in position for 5 minutes and the mass of the absorbed water was determined by gravimetric techniques. In order to take into account the water absorbed from the air inside the enclosure, a second background measurement was conducted in parallel inside the enclosed acrylic box. From the measurements, the evaporation resistance was calculated with the equation (1).
The terms used in the equation are as follows: Adesicant=area of the desiccant cartridge; • t=measuring time; (w-w0)=water concentration difference between the aqueous surface and the surface of the desiccant cartridge; m(I)=water amount absorbed in the presence of the lipid film; mPBS(0)=water amount absorbed in the absence of the lipid film; Δmtot=mass of evaporated water during the measurement; ti=time point D=diffusion coefficient; ρ=water density; ATrough=area of the Langmuir Trough.
The evaporation reduction was determined as the total reduction of water absorbed by a desiccant cartridge when a lipid film was covering the subphase versus the situation when the lipid film was absent. Equation (2) was utilized in the calculations.

[2] = Surface pressure isotherms and Brewster angle microscopy of films on a Langmuir trough; conditions: PBS subphase, 35±1° C.
Protocol: as §1

[3] = Differential scanning calorimetry (DSC) of active components, phospholipids and liposomal formulations; conditions: heating 10° C./min, triplicate; for Peak Tm1 ± SD / Onset Tm2 ± SD / Peak Tm2 ± SD: in °C (unit assumed)
Protocol: Differential scanning calorimetry (DSC 2500 with an RCS90 cooling unit; TA instruments, Newcastle, DE, USA) was utilized to study the thermal properties of the active compounds. Nitrogen (N2) was utilized as the purge gas at rate of 50 mL/min during the measurements. […] of the active components were placed into aluminum pans with manually made pin holes (DSC Consumables incorporated, Austin, Minnesota, USA). The samples were subsequently sealed and analyzed with DSC utilizing the TRIOS® software (TA instruments, Newcastle, DE, USA). All results were compared to an empty reference pan containing a pin hole. Each measurement was performed in triplicate. Briefly, the samples were cooled to 0° C., then heated from 0° C. to 75° C. at a rate of 10° C./min. Then, the samples were kept isothermally at 75° C. for 10 min, after which they were equilibrated to −50° C. at an uncontrolled rate. Ultimately, the samples were heated again to 75° C. at a rate of 10° C./min.
The phospholipid bilayer phase transition behavior was studied to assess whether successful integration of the active components into the phospholipid bilayer had been achieved or not. The studies were performed in a similar fashion as described for active components above. In this case, 20 μL of a formulation was pipetted into the aluminum pans (DSC Consumables incorporated, Austin, Minnesota, USA), which were subsequently sealed and analyzed with DSC employing the TRIOS® software (TA instruments, Newcastle, DE, USA). The samples were cooled and equilibrated to 5° C., then heated from 5° C. to 70-85° C. at a rate of 10° C./min and the results were compared to the reference pan containing the liquid used to hydrate the lipid film. All prepared liposomal formulations which viscosity were low enough to be pipetted, were analyzed by DSC and compared to the thermograms obtained from liposomes containing only the PC-component and the thermograms obtained for the active components.

| Onset Tm1 ± SD [3] | Peak Tm1 ± SD [3] | Structure (SMILES) | evaporation resistance of OAHFA films [1] | other results |
| --- | --- | --- | --- | --- |
|  |  | CCCCCCCC/C=C\CCCCCCCCOC(=O)CCCCCCCCCCCCCCCCCCC(=O)O [R-20:0/18:1-OAHFA, 20-(oleyloxy)-20-oxo-eicosanoic acid] | reasonable degree of evaporation resistance |  |
|  |  | CCCCCCCCCCCCCCCCCC(=O)OC[C@H](COP(=O)(O)OCCN)OC(=O)CCCCCCCCCCCCCCCCC [18:0 PE, 1,2-distearoyl-sn-glycero-3-phosphoethanolamine] |  | phase behaviour of the film (surface pressure isotherm, BAM) [2]: suitable properties; evaporation resistance of phospholipid films [1]: highest evaporation resistance |
|  |  | CCCCCCCCCCCCCCCC(=O)OC[C@H](COP(=O)(O)OCCN)OC(=O)CCCCCCCCCCCCCCC [16:0 PE, 1,2-dipalmitoyl-sn-glycero-3-phosphoethanolamine] |  | phase behaviour of the film (surface pressure isotherm, BAM) [2]: suitable properties |
|  |  | CCCCCCCCCCCCCCCCCC(=O)OC[C@H](COP(=O)(O)OC[C@H](N)C(=O)[O-])OC(=O)CCCCCCCCCCCCCCCCC.[Na+] [18:0 PS, 1,2-distearoyl-sn-glycero-3-phospho-L-serine (sodium salt)] |  | phase behaviour of the film (surface pressure isotherm, BAM) [2]: suitable properties |
| 17.37 ± 0.69 | 22.74 ± 1.57 | CCCCCCCCCCCCCC(=O)OC[C@H](COP(=O)([O-])OCC[N+](C)(C)C)OC(=O)CCCCCCCCCCCCC [DMPC, 1,2-dimyristoyl-sn-glycero-3-phosphocholine] |  |  |
| 34.48 ± 0.05 | 36.74 ± 0.92 | CCCCCCCC/C=C\CCCCCCCC(=O)OCCCCCCCCCCCCCCCCCCCCCC [BO, behenyl oleate] |  |  |
| 50.13 ± 0.29 | 54.67 ± 0.18 | CCCCCCCCCCCCCCCCCC(=O)OC[C@H](COP(=O)([O-])OCC[N+](C)(C)C)OC(=O)CCCCCCCCCCCCCCCCC [DSPC, 1,2-distearoyl-sn-glycero-3-phosphocholine] |  |  |
| 55.00 ± 0.87 | 57.53 ± 0.95 | CCCCCCCC/C=C\CCCCCCCCOC(=O)CCCCCCCCCCCCCCCCC(=O)O [R-18:0/18:1-OAHFA, 18-(oleyloxy)-18-oxo-octadecanoic acid] | reasonable degree of evaporation resistance | Onset Tm2 ± SD [3]: 63.20 ± 0.28; Peak Tm2 ± SD [3]: 63.88 ± 0.14 |
|  |  | CCCCCCCC/C=C\CCCCCCCC(=O)OCCCCCCC/C=C\CCCCCCCCCCCCCCCCCCCC(=O)O [29:1/18:1-OAHFA, (21Z)-29-(oleoyloxy)nonacos-21-enoic acid] | reasonable degree of evaporation resistance |  |
| 63.04 ± 0.21 | 64.87 ± 0.05 | CCCCCCCCCCCCCCCCCCCC(=O)OC[C@H](COP(=O)([O-])OCC[N+](C)(C)C)OC(=O)CCCCCCCCCCCCCCCCCCC [DAPC, 1,2-diarachidoyl-sn-glycero-3-phosphatidylcholine] |  |  |
| 41.65 ± 1.16 | 46.54 ± 0.18 | CCCCCCCC/C=C\CCCCCCCC(=O)OCCCCCCCCCCCCCCCCCCCC(=O)O [20:0/18:1-OAHFA, 20-(oleoyloxy)eicosanoic acid] | reasonable degree of evaporation resistance | Onset Tm2 ± SD [3]: 56.89 ± 1.42; Peak Tm2 ± SD [3]: 59.52 ± 0.38 |
|  |  | CCCCCCCCCCCCCCCCCC(=O)OC[C@H](COP(=O)([O-])OCC(O)CO)OC(=O)CCCCCCCCCCCCCCCCC.[Na+] (mixture of isomers) [18:0 PG, 1,2-distearoyl-sn-glycero-3-phospho-rac-(1-glycerol) sodium salt] |  | phase behaviour of the film (surface pressure isotherm, BAM) ([2]; sodium salt): suitable properties; also recorded: phase transition occurring at a low surface pressure; evaporation resistance of phospholipid films [1]: highest evaporation resistance |
|  |  | CCCCCCCC/C=C\CCCCCCCC(=O)OCCCCCCCCCCCCCCC(=O)O [15:0/18:1-OAHFA, 15-(oleoyloxy)pentadecanoic acid] | significantly weaker evaporation-resistant properties |  |
|  |  | CCCCCCCC/C=C\CCCCCCCC(=O)OCCCCCCCCCCCCCCCCCCCCCC(=O)O [22:0/18:1-OAHFA, 22-(oleoyloxy)docosanoic acid] | reasonable degree of evaporation resistance |  |
| 54.92 ± 0.87 | 56.50 ± 0.64 | CCCCCCCC/C=C\CCCCCCCC(=O)OCCCCCCCCCCCCCCCCCC(=O)O [18:0/18:1-OAHFA, 18-(oleoyloxy)octadecanoic acid] | displays evaporation resistance; also recorded: highest evaporation resistance | phase behaviour of the film (surface pressure isotherm, BAM) [2]: does undergo a liquid to solid phase transition; surface activity / spreading ability [2]: surface active lipids |
|  |  | CCCCCCCC/C=C\CCCCCCCC(=O)OCCCCCCC/C=C\CCCCCCCCCCC(=O)O [20:1/18:1-OAHFA, (12Z)-20-(oleoyloxy)eicos-12-enoic acid] | significantly weaker evaporation-resistant properties | phase behaviour of the film (surface pressure isotherm, BAM) [2]: does not undergo a phase transition; surface activity / spreading ability [2]: surface active lipids |
| 56.49 ± 0.49 | 57.61 ± 0.22 | CCCCCCCCCCCCCCCCCCO [1-Octadecanol, octadecanol] |  | evaporation resistance of long chain fatty alcohols ([1]; FIG. 5): most promising species |
|  |  | CCCCCCCC/C=C\CCCCCCCC(=O)OCCCCCCCCCCCC(=O)O [12:0/18:1-OAHFA, 12-(oleoyloxy)dodecanoic acid] | significantly weaker evaporation-resistant properties |  |
